ChEMBL document CHEMBL5625249, “Optimization and antifungal activity of quinoline derivatives linked to chalcone moiety combined with FLC against Candida albicans” (Eur J Med Chem, 2023)
The source made the active and inactive calls. The calls are words filed in the database; no cut-off is given here.

Experiments:
Candida albicans [1] = assay: Antifungal activity against clinical FLC-resistant Candida albicans 808 measured after 24 hrs by microdilution method; type: functional
Candida albicans [2] = assay: Antifungal activity against clinical FLC-resistant Candida albicans 4574 measured after 24 hrs by microdilution method; type: functional
Candida albicans [3] = assay: Antifungal activity against clinical FLC-resistant Candida albicans 602 measured after 24 hrs by microdilution method; type: functional
Candida albicans [4] = assay: Synergistic antifungal activity against clinical FLC-resistant Candida albicans 602 assessed as fractional inhibitory concentration index measured after 24 hrs by microdilution method; type: functional
Candida albicans [5] = assay: Synergistic antifungal activity against Clinical FLC-resistant Candida albicans 23 measured after 24 hrs in presence of fluconazole by microdilution method; type: functional
Candida albicans [6] = assay: In vivo antifungal activity against FLC-resistant Candida albicans ATCC 14053 infected in Balb/c mouse assessed as restoration of normal kidney morphology at 15 mg/kg, ig measured after 6 days by H and E staining based histopathological analysis; type: functional, organism-based; settings: time 6.0 day
Candida albicans [7] = assay: In vivo antifungal activity against FLC-resistant Candida albicans ATCC 14053 infected in Balb/c mouse assessed as reduction in infiltration of inflammatory cells at 7.5 to 15 mg/kg, ig measured after 6 days in presence of fluconazole by H and E staining based histopathological analysis; type: functional, organism-based; settings: dose 7.5-15 mg/kg, time 6.0 day
Candida albicans [8] = assay: Synergistic antifungal activity against clinical FLC-resistant Candida albicans 550 measured after 24 hrs by microdilution method; type: functional
Candida albicans [9] = assay: Synergistic antifungal activity against clinical FLC-resistant Candida albicans 3816 measured after 24 hrs by microdilution method; type: functional
Candida albicans [10] = assay: Synergistic antifungal activity against clinical FLC-resistant Candida albicans 3511 assessed as fractional inhibitory concentration index measured after 24 hrs by microdilution method; type: functional
Candida albicans [11] = assay: Synergistic antifungal activity against FLC-resistant Candida albicans ATCC 14053 assessed as inhibition of hyphal formation by measuring down regulation of HWP1 gene expression at 1 ug/ml measured after 16 to 18 hrs in presence of fluconazole by qRT-PCR analysis; type: functional, organism-based; settings: dose 1.0 µg/ml, time 16-18 hrs
Candida albicans [12] = assay: Synergistic antifungal activity against FLC-resistant Candida albicans ATCC 10231 assessed as fractional inhibitory concentration index measured after 24 hrs by microdilution method; type: functional
Candida albicans [13] = assay: Antifungal activity against clinical FLC-resistant Candida albicans 381 measured after 24 hrs by microdilution method; type: functional
Candida albicans [14] = assay: In vivo antifungal activity against FLC-resistant Candida albicans ATCC 14053 infected in Balb/c mouse assessed as increase in organ coefficients of thymus at 7.5 to 15 mg/kg, ig measured after 6 days in presence of fluconazole; type: functional, organism-based; settings: dose 7.5-15 mg/kg, time 6.0 day
[15] = Toxicity in Balb/c mouse assessed as weight loss at 7.5 to 15 mg/kg, ig measured daily for 6 days in presence of fluconazole; type: organism-based; settings: in vivo, po, 144 h, dose 7.5-15 mg/kg, time 6 day
Candida albicans [16] = assay: Antifungal activity against clinical FLC-resistant Candida albicans 3816 measured after 24 hrs by microdilution method; type: functional
Candida albicans [17] = assay: Synergistic antifungal activity against FLC-resistant Candida albicans ATCC 14053 assessed as reduction in intracellular ATP level at 1 ug/ml measured after 16 to 18 hrs in presence of fluconazole by luminescence assay; type: functional, organism-based; settings: dose 1.0 µg/ml, time 16-18 hrs
[18] = Toxicity in Balb/c mouse assessed as death at 7.5 to 15 mg/kg, ig measured daily for 6 days in presence of fluconazole; type: organism-based; settings: in vivo, po, 144 h, dose 7.5-15 mg/kg, time 6 day
Candida albicans [19] = assay: In vivo antifungal activity against FLC-resistant Candida albicans ATCC 14053 infected in Balb/c mouse assessed as reduction in internal fungal growth at 7.5 to 15 mg/kg, ig measured after 6 days in presence of fluconazole by H and E staining based histopathological analysis; type: functional, organism-based; settings: dose 7.5-15 mg/kg, time 6.0 day
Candida albicans [20] = assay: Synergistic antifungal activity against FLC-resistant Candida albicans ATCC 14053 measured after 24 hrs by microdilution method; type: functional
Candida albicans [21] = assay: In vivo antifungal activity against FLC-resistant Candida albicans ATCC 14053 infected in Balb/c mouse assessed as reduction in lung fungal load at 7.5 to 15 mg/kg, ig measured after 6 days in presence of fluconazole; type: functional, organism-based; settings: dose 7.5-15 mg/kg, time 6.0 day
Candida albicans [22] = assay: In vivo antifungal activity against FLC-resistant Candida albicans ATCC 14053 infected in Balb/c mouse assessed as reduction in liver fungal load at 7.5 to 15 mg/kg, ig measured after 6 days in presence of fluconazole; type: functional, organism-based; settings: dose 7.5-15 mg/kg, time 6.0 day
Candida albicans [23] = assay: Synergistic antifungal activity against FLC-resistant Candida albicans ATCC 14053 assessed as inhibition of hyphal formation by measuring down regulation of ALS3 gene expression at 1 ug/ml measured after 16 to 18 hrs in presence of fluconazole by qRT-PCR analysis; type: functional, organism-based; settings: dose 1.0 µg/ml, time 16-18 hrs
Candida albicans [24] = assay: In vivo antifungal activity against FLC-resistant Candida albicans ATCC 14053 infected in Balb/c mouse assessed as reduction in severity of lesions in lungs at 15 mg/kg, ig measured after 6 days by H and E staining based histopathological analysis; type: functional, organism-based; settings: time 6.0 day
Candida albicans [25] = assay: Synergistic antifungal activity against FLC-resistant Candida albicans ATCC 14053 cultured in spider medium assessed as inhibition of hyphal formation at 1 ug/ml measured after 4 to 8 hrs in presence of fluconazole and dibutyryl-cAMP by inverted microscopy; type: functional, organism-based; settings: dose 1.0 µg/ml, time 4-8 hrs
Candida albicans [26] = assay: Synergistic antifungal activity against clinical FLC-resistant Candida albicans 800 assessed as fractional inhibitory concentration index measured after 24 hrs by microdilution method; type: functional
Candida albicans [27] = assay: Synergistic antifungal activity against clinical FLC-resistant Candida albicans 550 assessed as fractional inhibitory concentration index measured after 24 hrs by microdilution method; type: functional
Candida albicans [28] = assay: Antifungal activity against FLC-resistant Candida albicans ATCC 14053 cultured in spider medium assessed as inhibition of hyphal formation at 1 ug/ml measured after 2 hrs by inverted microscopy; type: functional, organism-based; settings: dose 1.0 µg/ml
Candida albicans [29] = assay: Synergistic antifungal activity against FLC-sensitive Candida albicans SC5314 assessed as fractional inhibitory concentration index measured after 24 hrs in presence of fluconazole by microdilution method; type: functional
Candida albicans [30] = assay: In vivo antifungal activity against FLC-resistant Candida albicans ATCC 14053 infected in Balb/c mouse assessed as survival rate at 7.5 to 15 mg/kg, ig measured daily for 6 days in presence of fluconazole (Rvb < 20%); type: functional; settings: dose 7.5-15 mg/kg, time 6 day
Candida albicans [31] = assay: Induction of mitochondrial membrane potential loss in FLC-resistant Candida albicans ATCC 14053 at 1 ug/mL measured after 16 to 18 hrs in presence of fluconazole by JC-1 staining based fluorescence assay; type: functional, organism-based; settings: dose 1.0 µg/ml, time 16-18 hrs
Candida albicans [32] = assay: Synergistic antifungal activity against clinical FLC-resistant Candida albicans 3511 measured after 24 hrs by microdilution method; type: functional
[33] = Toxicity in Balb/c mouse infected with FLC-resistant Candida albicans ATCC 14053 assessed as weight loss at 7.5 to 15 mg/kg, ig measured daily for 6 days in presence of fluconazole; type: organism-based; settings: in vivo, po, 144 h, dose 7.5-15 mg/kg, time 6 day
Candida albicans [34] = assay: Synergistic antifungal activity against clinical FLC-resistant Candida albicans 4574 assessed as fractional inhibitory concentration index measured after 24 hrs by microdilution method; type: functional
Candida albicans [35] = assay: Antifungal activity against FLC-resistant Candida albicans ATCC 14053 at 1 ug/mL measured over 48 hrs by time-killing assay; type: functional, organism-based; settings: dose 1.0 µg/ml

Question: With `CN1CCN(c2nc3ccccc3cc2/C=C/C(=O)c2ccc(N3CCN(Cc4ccc(C(F)(F)F)cc4)CC3)cc2)CC1` as the compound, how does the MIC80 (Candida albicans [1]) read?
Answer: The MIC80 was greater than 40 µg/mL.

Question: What about the MIC80 (Candida albicans [2]) of the same compound?
Answer: Its MIC80 is greater than 40 µg/mL.

Question: What about the MIC80 (Candida albicans [3]) of the same compound?
Answer: Its MIC80 is greater than 40 µg/mL.

Question: And the “fractional inhibitory concentration index (FICI)” value (Candida albicans [4])?
Answer: The value was 0.14.

Question: What about the MIC80 (Candida albicans [5]) of the same compound?
Answer: Its MIC80 is 1.2 µg/mL.

Question: What about the Activity (Candida albicans [6]) of the same compound?
Answer: The Activity was “inactive”.

Question: And the Activity (Candida albicans [7])?
Answer: Its Activity is “Active”.

Question: And the MIC80 (Candida albicans [8])?
Answer: The MIC80 was 5.9 µg/mL.

Question: What about the MIC80 (Candida albicans [9]) of the same compound?
Answer: The MIC80 was 1.2 µg/mL.

Question: And the “fractional inhibitory concentration index (FICI)” value (Candida albicans [10])?
Answer: Its value is 0.15.

Question: And the inhibition (Candida albicans [11])?
Answer: Its inhibition is “Active”.

Question: And the “fractional inhibitory concentration index (FICI)” value (Candida albicans [12])?
Answer: Its value is 0.14.

Question: And the MIC80 (Candida albicans [13])?
Answer: The MIC80 was greater than 40 µg/mL.

Question: What about the Activity (Candida albicans [14]) of the same compound?
Answer: Its Activity is “Active”.

Question: What about the Activity [15] of the same compound?
Answer: Its Activity is “Non-Toxic”.

Question: What about the MIC80 (Candida albicans [16]) of the same compound?
Answer: Its MIC80 is greater than 40 µg/mL.

Question: And the Activity (Candida albicans [17])?
Answer: Its Activity is “Active”.

Question: And the Activity [18]?
Answer: The Activity was “Non-Toxic”.

Question: What about the Activity (Candida albicans [19]) of the same compound?
Answer: Its Activity is “Active”.

Question: What about the MIC80 (Candida albicans [20]) of the same compound?
Answer: Its MIC80 is 0.87 µg/mL.

Question: What about the Activity (Candida albicans [21]) of the same compound?
Answer: The Activity was “inactive”.

Question: And the Activity (Candida albicans [22])?
Answer: The Activity was “inactive”.

Question: What about the inhibition (Candida albicans [23]) of the same compound?
Answer: The inhibition was “Active”.

Question: And the Activity (Candida albicans [24])?
Answer: The Activity was “inactive”.

Question: And the inhibition (Candida albicans [25])?
Answer: The inhibition was “inactive”.

Question: And the “fractional inhibitory concentration index (FICI)” value (Candida albicans [26])?
Answer: Its value is 0.03.

Question: And the “fractional inhibitory concentration index (FICI)” value (Candida albicans [27])?
Answer: Its value is 0.15.

Question: And the inhibition (Candida albicans [28])?
Answer: Its inhibition is “inactive”.

Question: What about the “fractional inhibitory concentration index (FICI)” value (Candida albicans [29]) of the same compound?
Answer: The value was 0.21.

Question: What about the Survival (Candida albicans [30]) of the same compound?
Answer: Its Survival is 90%.

Question: What about the Activity (Candida albicans [31]) of the same compound?
Answer: The Activity was “Active”.

Question: And the MIC80 (Candida albicans [32])?
Answer: The MIC80 was 5.89 µg/mL.

Question: What about the Activity [33] of the same compound?
Answer: The Activity was “Non-Toxic”.

Question: And the “fractional inhibitory concentration index (FICI)” value (Candida albicans [34])?
Answer: Its value is 0.02.

Question: What about the Activity (Candida albicans [35]) of the same compound?
Answer: The Activity was “inactive”.
